Results on one compound are retold here after US20210347728A1, “4,5-DIHYDROXY-2-(4-METHYLBENZYL)ISOPHTHALONITRILE SOLVATES AND CRYSTALLINE FORMS THEREOF” (Orion Corporation, priority 2018, published 2021).

This data set is described as follows: Stability and conversion of crystalline forms with relative humidity. It is filed as physicochemical. As to conditions: humidity range not specified.

Regarding `Cc1ccc(Cc2c(C#N)cc(O)c(O)c2C#N)cc1` [Form II monohydrate, 4,5-dihydroxy-2-(4-methylbenzyl)isophthalonitrile monohydrate], the “stability of the crystalline form with humidity” value is given as “stable within a reasonable humidity range”.
